Reference: publication PMC8362065, “Easily Available, Amphiphilic Diiron Cyclopentadienyl Complexes Exhibit in Vitro Anticancer Activity in 2D and 3D Human Cancer Cells through Redox Modulation Triggered by CO Release” (Chemistry (Weinheim an Der Bergstrasse, Germany), 2021)

What was measured:
HEK293 noncancer cells = assay: Intracellular CO release, fluorescent CO probe; assay type: cell-based, human; settings: 20 μM, 30 min, fluorescent probe (Figure 4B)
Procedure: (§1) Figure 4 Intracellular detection of iron and carbon monoxide. A) Cellular uptake in PSN‐1 and HEK293 cells; cells were incubated with 50 μM of complexes for 24 h, and the cellular iron content was detected by GFAAS analysis. B) Intracellular CO levels were determined by using a fluorescent probe (BioTracker Carbon Monoxide Probe 1 Live Cell Dye®, Merck, Germany) after 30 min of treatment of PSN‐1 or HEK293 cells with 20 μM [2C]CF3SO3 and [2D]CF3SO3, or 20 μM CORM‐401 as positive control. ** P<0.01, * P<0.05.
(§2) Additional studies were conducted in order to elucidate the mode of action underlying the cell killing effect of the newly synthesized diiron complexes in cancer cells. In particular, based on the evidence of their tendency to slowly release CO in aqueous media (see section on solubility, partition coefficient, stability in aqueous media), we evaluated the ability of the most performant complexes [2C]CF3SO3 and [2D]CF3SO3 to release carbon monoxide inside PSN‐1 pancreatic cancer cells and HEK293 noncancer cells. A fluorometric test was conducted over a short time interval (30 min) by means of a CO sensing dye (Figure 4B). […] The relatively fast release of carbon monoxide within the cell might be associated to the presence of a consistent amount and variety of biological substrates, which can quicken the formation of CO substitution diiron products. As a matter of fact, it is well documented that [2E–F]CF3SO3 are susceptible to replacement of one terminal CO ligand by suitable C‐, P‐, S‐ and N‐donors to give adducts of general formula [Fe2Cp2(CO)(L)(μ‐CO){μ‐CNR(Me)}]^0/+.[[15b], [16a], [20]] Although the nature of L in the cell context is far from being clarified, it is reasonable to speculate that CO release is readily operative via such substitution pathway. However, an acceleration of the route leading to the extensive decomposition of the diiron scaffold (elimination of three COs per complex), as observed in aqueous media, might also contribute.
(§3) Intracellular CO release. PSN‐1 cell (1×10^4) were seeded in 96‐well plates. After 24 h, cells were treated with 20 μM of tested complexes or CORM‐401 (Merck) for […] at 37 °C and followed by 30 min incubation with a fluorescent probe BioTracker Carbon Monoxide Probe 1 Live Cell Dye® (Merck). The intracellular fluorescence, indicative of CO accumulation in cells, was quantified using a VICTOR X3 (PerkinElmer) plate reader.

[1] = tested on: PSN‐1 pancreatic cancer cells; assay: Intracellular CO release, fluorescent CO probe; assay type: cell-based, human; settings: PSN‐1 cells, 20 μM, 30 min, fluorescent probe (Figure 4B)
Procedure: as §1, §2, §3

[2] = tested on: thioredoxin reductase (TrxR); settings: cell-free experiment (data not shown)
From the text: It has recently emerged that the redox stress induced by some iron complexes might also be attributed to their ability to inhibit the selenoenzyme thioredoxin reductase (TrxR).

[3] = tested on: TrxR in human pancreatic PSN‐1 cancer cells; assay: TrxR activity in treated cells, NADPH-dependent reduction of DTNB; assay type: cell-based; settings: PSN‐1 cells, 25 μM, 24 h
Procedure: Figure 6 Effects of compounds [2C]CF3SO3, [2D]CF3SO3 and Auranofin as positive control on TrxR in human pancreatic cells. […] Afterwards, cells were washed twice with PBS and lysed. TrxR activity was tested by measuring the NADPH‐dependent reduction of DTNB. * P<0.05.

[4] = tested on: human pancreatic PSN‐1 cancer cells; assay: Cellular uptake, iron by GF-AAS; assay type: cell-based; settings: PSN‐1 cells, 50 μM, 24 h, GF-AAS (μg Fe per 10^6 cells, Figure 4A)
Procedure: (§4) In order to correlate the cytotoxic potential to the ability of the newly developed complexes to enter cells, we performed uptake experiments. […] Thus, cells were treated for 24 h with equimolar concentrations (50 μM) of the tested compounds. The cellular iron levels were quantified by means of GF‐AAS analysis, and the results, expressed as μg Fe per 10^6 cells, are shown in Figure 4A. […]
as §1
(§5) Cellular uptake. […] Cell monolayers were washed twice with cold PBS, harvested and counted. […] After cooling, each mineralized sample was analysed for iron using a Varian AA Duo graphite furnace atomic absorption spectrometer (Varian) at the wavelength of 248.3 nm. […]

[5] = tested on: untransformed HEK293 cells; assay: Cellular uptake, iron by GF-AAS; assay type: cell-based, human; settings: 50 μM, 24 h, GF-AAS (μg Fe per 10^6 cells, Figure 4A)
Procedure: as §4, §1, §5

[6] = Solubility in D2O by 1H NMR (Me2SO2 internal standard); assay type: physicochemical; settings: 21 °C
Procedure: Solubility in water. A suspension of the selected Fe compound (3–5 mg) in a D2O solution (0.7 mL) containing Me2SO2 as internal standard^52 (3.36 ⋅ 10^−3 M) was vigorously stirred at 21 °C for 10 h. The resulting saturated solution was filtered over celite, transferred into an NMR tube and analysed by ^1H NMR spectroscopy (delay time=3 s; number of scans=20). For the most soluble compounds (S≥0.05 M), a saturated solution was prepared in a smaller volume of D2O/Me2SO2 (0.2–0.3 mL), then filtered and diluted with pure D2O. The concentration (solubility) was calculated by the relative integral with respect to Me2SO2 (δ/ppm=3.14 (s, 6H)).

Row | Solubility [6] | Substance | Intracellular CO levels (HEK293 noncancer cells) | Intracellular CO levels [1] | TrxR inhibition [2] | residual TrxR cellular activity [3] | Cellular iron accumulation (uptake) [4] | Cellular iron accumulation (uptake) [5]
1 |  | [Fe2Cp2(CO)2(μ‐CO){μ‐CNMe(C6H11)}]X [[2C]CF3SO3] | lower levels of CO were detected | effective in significantly release CO | completely ineffective | 57% |  | 
2 |  | [Fe2Cp2(CO)2(μ‐CO){μ‐CNMe(4‐C6H4OMe)}]CF3SO3 [[2D]CF3SO3] | lower levels of CO were detected | effective in significantly release CO | completely ineffective | 39% | able to induce cellular iron accumulation | major iron accumulation in untransformed cells with respect to pancreatic cancer cells
3 | not soluble ^[a] | [Fe2Cp2(CO)2(μ‐CO){μ‐CNEt(2‐naphthyl)}]BF4 [[4G]BF4] |  |  |  |  |  | 
